{"source": "patent US8198432B2", "about": "“Porphyrin-based compounds for tumor imaging and photodynamic therapy” (Health Research, Inc., priority 2005, dated 2012)", "key": {"[1]": {"assay": "biodistribution of the I-124 PET agent in selected organs", "type": "in vivo, mice", "parameters": "unit not given here", "conditions": "48 h post injection, per gram of organ", "method": "After PET imaging at 48 h post-injection, a group of mice (3 mice/group) were sacrificed and the biodistribution of the I-124 PET agent in selected organs/gram were determined."}, "[2]": {"test_system": "RIF tumors", "assay": "in vivo tumor imaging with small animal PET scanner", "conditions": "C3H mice bearing RIF tumors", "method": "In initial experiments, the 1-124 labeled photosensitizer 2 at variable radioactive doses (35, 50 and 100 µCi) was injected in three sets of C3H mice (3 mice/group, bearing RIF tumors at the shoulder) respectively and the images were taken with a small animal PET scanner at 24, 48 and 72 h time intervals (FIG. 6 images A, B, and C). In all radioactive doses, the best images were obtained at 48 h post injection of the drug."}, "[3]": {"test_system": "RIF cells", "assay": "preliminary screening of aromatic alkyl ethers for in vitro and in vivo efficacy (RIF cells)", "type": "cell-based", "description": "There are several methods for labeling the compounds with iodine isotopes. Conversion of the cold iodo- to radioactive iodo- is possible, but the specific activity of the resulting product is low. […] Therefore, we prepared a series of aromatic alkyl ethers and evaluated them for in vitro (RIF cells) and in vivo efficacy (RIF cells)."}, "[4]": {"test_system": "RIF tumor cells", "assay": "in vitro photosensitizing efficacy (PDT, MTT assay) in RIF tumor cells", "type": "cell-based", "parameters": "in vitro photosensitizing efficacy compared with HPPH: dose or concentration left out as unconfirmed", "method": "For evaluating in vitro photosensitizing efficacy of 3-iodobenxyloxyethyl-pyropheophorbide-a 2, RIF tumor cells were grown in alpha-DMEM with 10% fetal calf serum, penicillin and streptomycin. Cells were maintained in 5% CO2, 95% air and 100% humidity. For determining the PDT efficacy, these cells were plated in 96-well plates and a density of 1×10^4 cells well in complete media. After overnight incubation to allow the cells to attach, the HPPH and the related cold-iodo derivative 2 were individually added at variable concentrations. After 3 hr incubation in the dark at 37° C., the cells were washed once with PBS, and irradiated with light. After light treatment, the cells were washed once and placed in complete media and incubated for 48 hrs. Then 10 μl of a 4-mg/ml solution of MTT was added to each well. After incubating for 4 hr at 37° C. the MTT+ media were removed and 100 μl DMSO was added to solubilize the formazin crystals. The 96-well plate was read on a microtiter plate reader at an absorbance of 560 nm. The optimal cell kill was obtained at a concentration of 1.00 µM. The results were plotted as percent survival of the corresponding dark (drug no light) control for each compound tested. (FIG. 4) Each data point represents the mean from 3 separate experiments, and the error bars are the standard deviation. Each experiment used 5 replicate wells."}, "[5]": {"test_system": "RIF tumors", "assay": "in vivo photosensitizing efficacy, tumor re-growth after laser light", "conditions": "C3H mice bearing RIF tumors, light at 665 nm for 30 minutes", "method": "The in vivo efficacy was determined in C3H mice bearing RIF tumors (5 mice/group). The tumors were exposed to light at 665 nm (in vivo absorption) with a laser light ([…]) for 30 minutes. The tumor-regrowth was measured everyday (for details see ‘Methods’ part of the project). […] Further studies to optimize the treatment conditions at variable fluence and fluence-rates and time intervals are currently in progress."}}, "note": "Values joined by “and” are separate entries in the source; they are usually repeats but may differ in a detail not shown here. Equal entries are not always repeated.", "data": [{"smiles": "CCC1=C(C)c2cc3[nH]c(cc4nc(c5c6[nH]c(cc1n2)c(C)c6C(=O)C5)[C@@H](CCC(=O)OC)[C@@H]4C)c(C)c3C(C)OCc1cccc([124I])c1", "note": "(stereo partly drawn) [I-124 labeled photosensitizer 4]", "values": [{"measurement": "biodistribution, Blood", "setting": "[1]; AVG of 3 mice", "value": 1.12}, {"measurement": "biodistribution, Gut", "setting": "[1]; AVG of 3 mice", "value": 2.47}, {"measurement": "biodistribution, Heart", "setting": "[1]; AVG of 3 mice", "value": 0.99}, {"measurement": "biodistribution, Kidney", "setting": "[1]; AVG of 3 mice", "value": 1.10}, {"measurement": "biodistribution, Liver", "setting": "[1]; AVG of 3 mice", "value": 3.31}, {"measurement": "biodistribution, Lungs", "setting": "[1]; AVG of 3 mice", "value": 1.09}, {"measurement": "biodistribution, Muscle", "setting": "[1]; AVG of 3 mice", "value": 0.35}, {"measurement": "biodistribution, Spleen", "setting": "[1]; AVG of 3 mice", "value": 2.11}, {"measurement": "biodistribution, Stomach", "setting": "[1]; AVG of 3 mice", "value": 1.02}, {"measurement": "biodistribution, Tumor", "setting": "[1]; AVG of 3 mice", "value": 2.22}, {"measurement": "biodistribution, Blood", "setting": "[1]; individual mouse (Mouse 1-3)", "value": "1.47 and 1.33 and 0.57"}, {"measurement": "biodistribution, Gut", "setting": "[1]; individual mouse (Mouse 1-3)", "value": "3.6 and 2.22 and 1.69"}, {"measurement": "biodistribution, Heart", "setting": "[1]; individual mouse (Mouse 1-3)", "value": "0.79 and 1.21 and 0.98"}, {"measurement": "biodistribution, Kidney", "setting": "[1]; individual mouse (Mouse 1-3)", "value": "1.09 and 1.21 and 0.99"}, {"measurement": "biodistribution, Liver", "setting": "[1]; individual mouse (Mouse 1-3)", "value": "3.46 and 3.22 and 3.26"}, {"measurement": "biodistribution, Lungs", "setting": "[1]; individual mouse (Mouse 1-3)", "value": "0.99 and 1.29 and 1.00"}, {"measurement": "biodistribution, Muscle", "setting": "[1]; individual mouse (Mouse 1-3)", "value": "0.18 and 0.49 and 0.37"}, {"measurement": "biodistribution, Spleen", "setting": "[1]; individual mouse (Mouse 1-3)", "value": "2.04 and 2.23 and 2.05"}, {"measurement": "biodistribution, Stomach", "setting": "[1]; individual mouse (Mouse 1-3)", "value": "1.3 and 0.66 and 1.10"}, {"measurement": "biodistribution, Tumor", "setting": "[1]; individual mouse (Mouse 1-3)", "value": "2.4 and 2.15 and 2.10"}, {"measurement": "presence of the compound in organs other than tumor on PET images", "setting": "[2]", "value": "especially in liver was evident"}]}, {"smiles": "CCC1=C(C)c2cc3[nH]c(cc4nc(c5c6[nH]c(cc1n2)c(C)c6C(=O)C5)[C@@H](CCC(=O)OC)[C@@H]4C)c(C)c3C(C)OCc1cccc(I)c1", "note": "(stereo partly drawn) [Compound 2]", "values": [{"measurement": "efficacy in preliminary screening compared with HPPH", "setting": "[3]", "value": "as effective as HPPH"}, {"measurement": "concentration at which the optimal cell kill was obtained", "setting": "[4]; 3 hr incubation in the dark, light, MTT after 48 hrs", "value": 1.00, "unit": "µM"}, {"measurement": "in vitro photosensitizing efficacy compared with HPPH", "setting": "[4]; FIG. 4", "value": "slightly more effective"}, {"measurement": "time at which tumor re-growth was observed", "setting": "[5]; dose 0.25 […]mole/kg", "value": 10, "unit": "days post-injection"}, {"measurement": "time at which tumor re-growth was observed", "setting": "[5]; dose 0.50 […]mole/kg", "value": 15, "unit": "days post-injection"}, {"measurement": "in vivo efficacy (PDT)", "setting": "[5]; dose of 1.0 and 1.5 µmol/kg, 24 hours post injection", "value": "quite effective"}]}]}
